Numbered stars: 1 amine (or outer) side, 2 acyl side, 3 side chain; on linkers, the order of the positions; unused ones are H or OH. Square brackets hold non-standard residues; d marks the D form. Peptide text beside a SMILES is read from it. * marks the point of attachment. X1 = N#Cc1cnc2ccc(-c3c(-c4ccc(F)c(Cl)c4)ncn3CCOCN*)nn12; C18 diacid = O=C(O)CCCCCCCCCCCCCCCCC(=O)*; γGlu = O=C(O)[C@H](CCC(=O)[*:2])N[*:1]; PABC = O=C(OCc1ccc(N[*:1])cc1)[*:2]; Palmitoyl = CCCCCCCCCCCCCCCC(=O)*; AEEA = NCCOCCOCC(=O)O
Key:
[1] = Prodrug conversion in heart of C57BL/6 mouse xenografted mouse MC38 cells assessed as BMS-986260 Cmax at 8 mg/kg,iv and measured after 48 hrs by LC-MS/MS analysis; format: ADME, organism-based, MC-38; design: time 48 hrs, dose 8 mg/kg, route iv; conditions: in vivo
[2] = Stability in mouse plasma assessed as parent compound remaining after 24 hrs by HPLC-MS analysis; format: ADME, cell-free; conditions: read-out: Stability
[3] = Prodrug conversion in blood of C57BL/6 mouse xenografted mouse MC38 cells assessed as BMS-986260 Tmax at 8 mg/kg,iv and measured after 48 hrs by LC-MS/MS analysis; format: ADME, organism-based, MC-38; conditions: in vivo
[4] = Prodrug conversion in blood of C57BL/6 mouse xenografted mouse MC38 cells assessed as BMS-986260 AUC (0 to 48 hrs) at 8 mg/kg,iv and measured after 48 hrs by LC-MS/MS analysis; format: ADME, organism-based, MC-38; design: dose 8 mg/kg, time 48 hrs, route iv; conditions: in vivo
[5] = Prodrug conversion in C57BL/6 mouse xenografted mouse MC38 cells assessed as BMS-986260 ratio of AUC in tumor to heart at 8 mg/kg,iv and measured after 48 hrs by LC-MS/MS analysis; format: ADME, organism-based, MC-38; conditions: in vivo
[6] = Prodrug conversion in heart of C57BL/6 mouse xenografted mouse MC38 cells assessed as BMS-986260 Tmax at 8 mg/kg,iv and measured after 48 hrs by LC-MS/MS analysis; format: ADME, organism-based, MC-38; conditions: in vivo
[7] = Prodrug conversion in tumor of C57BL/6 mouse xenografted mouse MC38 cells assessed as BMS-986260 Tmax at 8 mg/kg,iv and measured after 48 hrs by LC-MS/MS analysis; format: ADME, organism-based, Neoplasm, MC-38; conditions: in vivo
[8] = Prodrug conversion in C57BL/6 mouse xenografted mouse MC38 cells assessed as BMS-986260 ratio of AUC in tumor to blood at 8 mg/kg,iv and measured after 48 hrs by LC-MS/MS analysis; format: ADME, organism-based, MC-38; conditions: tumour
[9] = Stability in rat plasma assessed as parent compound remaining after 24 hrs by HPLC-MS analysis; format: ADME, cell-free; conditions: read-out: Stability
[10] = AUC in C57BL/6 mouse plasma at 6 mg/kg,iv and measured upto 24 hrs by LC-MS/MS analysis; format: ADME, organism-based; design: dose 6 mg/kg, time < 24 hrs, route iv
[11] = Prodrug conversion in blood of C57BL/6 mouse xenografted mouse MC38 cells assessed as BMS-986260 Cmax at 8 mg/kg,iv and measured after 48 hrs by LC-MS/MS analysis; format: ADME, organism-based, MC-38; design: time 48 hrs, dose 8 mg/kg, route iv; conditions: in vivo
[12] = Prodrug conversion in heart of C57BL/6 mouse xenografted mouse MC38 cells assessed as BMS-986260 AUC (0 to 48 hrs) at 8 mg/kg,iv and measured after 48 hrs by LC-MS/MS analysis; format: ADME, organism-based, MC-38; design: time 48 hrs, dose 8 mg/kg, route iv; conditions: in vivo
[13] = Drug concentration in C57BL/6 mouse plasma at 6 mg/kg,iv and measured after 24 hrs by LC-MS/MS analysis; format: ADME, organism-based
[14] = Prodrug conversion in tumor of C57BL/6 mouse xenografted mouse MC38 cells assessed as BMS-986260 Cmax at 8 mg/kg,iv and measured after 48 hrs by LC-MS/MS analysis; format: ADME, organism-based, Neoplasm, MC-38; design: dose 8 mg/kg, time 48 hrs, route iv; conditions: in vivo
[15] = Prodrug conversion in tumor of C57BL/6 mouse xenografted mouse MC38 cells assessed as BMS-986260 AUC (0 to 48 hrs) at 8 mg/kg,iv and measured after 48 hrs by LC-MS/MS analysis; format: ADME, organism-based, Neoplasm, MC-38; design: dose 8 mg/kg, time 48 hrs, route iv; conditions: in vivo
[16] = Prodrug conversion in C57BL/6 mouse xenografted mouse MC38 cells assessed as BMS-986260 ratio of AUC in heart to blood at 8 mg/kg,iv and measured after 48 hrs by LC-MS/MS analysis; format: ADME, organism-based, MC-38; conditions: other tissue
[17] = Prodrug conversion in blood of C57BL/6 mouse xenografted mouse MC38 cells assessed as BMS-986260 ratio of AUC in tumor to blood at 8 mg/kg,iv and measured after 72 hrs by LC-MS/MS analysis; format: ADME, organism-based, MC-38; conditions: tumour
[18] = Prodrug conversion in blood of C57BL/6 mouse xenografted mouse MC38 cells assessed as BMS-986260 AUC (0 to 72 hrs) at 8 mg/kg,iv and measured after 72 hrs by LC-MS/MS analysis; format: ADME, organism-based, MC-38; design: time 72 hrs, dose 8 mg/kg, route iv; conditions: in vivo
[19] = Prodrug conversion in tumor of C57BL/6 mouse xenografted mouse MC38 cells assessed as BMS-986260 Cmax at 8 mg/kg,iv and measured after 72 hrs by LC-MS/MS analysis; format: ADME, organism-based, Neoplasm, MC-38; design: dose 8 mg/kg, time 72 hrs, route iv; conditions: in vivo
[20] = Prodrug conversion in blood of C57BL/6 mouse xenografted mouse MC38 cells assessed as BMS-986260 Cmax at 8 mg/kg,iv and measured after 72 hrs by LC-MS/MS analysis; format: ADME, organism-based, MC-38; design: dose 8 mg/kg, time 72 hrs, route iv; conditions: in vivo
[21] = Prodrug conversion in heart of C57BL/6 mouse xenografted mouse MC38 cells assessed as BMS-986260 Cmax at 8 mg/kg,iv and measured after 72 hrs by LC-MS/MS analysis; format: ADME, organism-based, MC-38; design: dose 8 mg/kg, time 72 hrs, route iv; conditions: in vivo
[22] = Prodrug conversion in blood of C57BL/6 mouse xenografted mouse MC38 cells assessed as BMS-986260 Tmax at 8 mg/kg,iv and measured after 72 hrs by LC-MS/MS analysis; format: ADME, organism-based, MC-38; conditions: in vivo
[23] = Prodrug conversion in C57BL/6 mouse xenografted mouse MC38 cells assessed as BMS-986260 ratio of AUC in heart to blood at 8 mg/kg,iv and measured after 72 hrs by LC-MS/MS analysis; format: ADME, organism-based, MC-38; conditions: other tissue
[24] = Prodrug conversion in tumor of C57BL/6 mouse xenografted mouse MC38 cells assessed as BMS-986260 Tmax at 8 mg/kg,iv and measured after 72 hrs by LC-MS/MS analysis; format: ADME, organism-based, Neoplasm, MC-38; conditions: in vivo
[25] = Prodrug conversion in tumor of C57BL/6 mouse xenografted mouse MC38 cells assessed as BMS-986260 AUC (0 to 72 hrs) at 8 mg/kg,iv and measured after 72 hrs by LC-MS/MS analysis; format: ADME, organism-based, Neoplasm, MC-38; design: time 72 hrs, dose 8 mg/kg, route iv; conditions: in vivo
[26] = Prodrug conversion in heart of C57BL/6 mouse xenografted mouse MC38 cells assessed as BMS-986260 AUC (0 to 72 hrs) at 8 mg/kg,iv and measured after 72 hrs by LC-MS/MS analysis; format: ADME, organism-based, MC-38; design: time 72 hrs, dose 8 mg/kg, route iv; conditions: in vivo
[27] = Prodrug conversion in heart of C57BL/6 mouse xenografted mouse MC38 cells assessed as BMS-986260 Tmax at 8 mg/kg,iv and measured after 72 hrs by LC-MS/MS analysis; format: ADME, organism-based, MC-38; conditions: in vivo
[28] = Prodrug conversion in blood of C57BL/6 mouse xenografted mouse MC38 cells assessed as BMS-986260 ratio of AUC in tumor to heart at 8 mg/kg,iv and measured after 72 hrs by LC-MS/MS analysis; format: ADME, organism-based, MC-38; conditions: in vivo

CC(C)C[C@H](NC(=O)COCCOCCNC(=O)COCCOCCNC(=O)CC[C@H](NC(=O)CCCCCCCCCCCCCCCCC(=O)O)C(=O)O)C(=O)N[C@@H](CO)C(=O)NCC(=O)N[C@@H](CCCCN)C(=O)Nc1ccc(COC(=O)NCOCCn2cnc(-c3ccc(F)c(Cl)c3)c2-c2ccc3ncc(C#N)n3n2)cc1 ({C18 diacid-γGlu-AEEA-AEEA}-LSGK[PABC]-X1)
Cmax [1]: 300 nM | remaining at 24 h [2]: 79% | Tmax [3]: 4 h | AUC [4]: 3 µM·h | Ratio AUC [5]: 1.2 | Tmax [6]: 8 h | Tmax [7]: 1 h | Ratio AUC [8]: 2.2 | remaining at 24 h [9]: 84% | AUC at 24 h [10]: 348 µM·h | Cmax [11]: 160 nM | AUC [12]: 5.4 µM·h | concentration at 24 h [13]: > 1000 nM | Cmax [14]: 470 nM | AUC [15]: 6.6 µM·h | Ratio AUC [16]: 1.8

CC(C)C[C@H](NC(=O)COCCOCCNC(=O)CC[C@H](NC(=O)CCCCCCCCCCCCCCCCC(=O)O)C(=O)O)C(=O)N[C@@H](CO)C(=O)NCC(=O)N[C@@H](CCCCN)C(=O)Nc1ccc(COC(=O)NCOCCn2cnc(-c3ccc(F)c(Cl)c3)c2-c2ccc3ncc(C#N)n3n2)cc1 ({C18 diacid-γGlu-AEEA}-LSGK[PABC]-X1)
remaining at 24 h [2]: 79% | remaining at 24 h [9]: 81% | concentration at 24 h [13]: > 1000 nM

CC(C)C[C@H](NC(=O)COCCOCCNC(=O)COCCOCCNC(=O)CC[C@H](NC(=O)CC[C@H](NC(=O)CC[C@H](NC(=O)CCCCCCCCCCCCCCCCC(=O)O)C(=O)O)C(=O)O)C(=O)O)C(=O)N[C@@H](CO)C(=O)NCC(=O)N[C@@H](CCCCN)C(=O)Nc1ccc(COC(=O)NCOCCn2cnc(-c3ccc(F)c(Cl)c3)c2-c2ccc3ncc(C#N)n3n2)cc1 ({C18 diacid-γGlu-γGlu-γGlu-AEEA-AEEA}-LSGK[PABC]-X1)
Ratio AUC [17]: 2.8 | AUC [18]: 4.6 µM·h | remaining at 24 h [2]: 96% | Cmax [19]: 310 nM | Cmax [20]: 140 nM | remaining at 24 h [9]: 93% | AUC at 24 h [10]: 270 µM·h | Cmax [21]: 270 nM | Tmax [22]: 1 h | Ratio AUC [23]: 1.8 | Tmax [24]: 8 h | concentration at 24 h [13]: 5200 nM | AUC [25]: 13 µM·h | AUC [26]: 8.4 µM·h | Tmax [27]: 8 h | Ratio AUC [28]: 1.6

CC(C)C[C@H](NC(=O)CC[C@H](NC(=O)CCCCCCCCCCCCCCCCC(=O)O)C(=O)O)C(=O)N[C@@H](CO)C(=O)NCC(=O)N[C@@H](CCCCN)C(=O)Nc1ccc(COC(=O)NCOCCn2cnc(-c3ccc(F)c(Cl)c3)c2-c2ccc3ncc(C#N)n3n2)cc1 ({C18 diacid-γGlu}-LSGK[PABC]-X1)
remaining at 24 h [2]: 84% | remaining at 24 h [9]: 77% | concentration at 24 h [13]: > 1000 nM

CCCCCCCCCCCCCCCC(=O)N[C@@H](CCC(=O)N[C@@H](CC(C)C)C(=O)N[C@@H](CO)C(=O)NCC(=O)N[C@@H](CCCCN)C(=O)Nc1ccc(COC(=O)NCOCCn2cnc(-c3ccc(F)c(Cl)c3)c2-c2ccc3ncc(C#N)n3n2)cc1)C(=O)O ({Palmitoyl-γGlu}-LSGK[PABC]-X1)
AUC at 24 h [10]: 40.9 µM·h
